These results are taken from patent US11365196B2, “FGFR inhibitor and application thereof” (Betta Pharmaceuticals Co., Ltd., priority 2017, dated 2022).

Like-named read-outs stand apart in the source and are kept apart here. A value given as a limit tells only on which side of the number the result lay.

Assay [1] relates to NCI-H716 (human colorectal cancer cell). As to the kind of experiment: Cell proliferation assay, CellTiter Glo (Table 9). The class given is cell-based.
Protocol: (§5) Test method: 100 μl of the cell suspension was added to a 96-well plate and placed in a CO2 incubator overnight. Test compounds were dissolved in DMSO and subjected to a 3-fold gradient dilution for a total of 10 concentrations. The test compound or DMSO was transferred to the corresponding cell wells respectively and was incubated for 96 hrs in 5% CO2 at 37° C. 100 μl of CellTiter-Glo reagent was added to the assay plate and incubated for 10 min at room temperature to stabilize the luminescence signal. The IC50 value was calculated by recording the RLU (relative luminescence unit) using Enspire.
In assay [2] the test system is RT4 (human bladder cancer cell). As to the kind of experiment: Cell proliferation assay, CellTiter Glo (Table 9). The format is cell-based. The settings on record: 96 hrs. In general terms: In ATP-based viability assays light output follows the ATP content of the culture.
Protocol: as §5
The test system of assay [3] is RT-112 (human bladder cancer cell). The assay is described as follows: Cell proliferation assay, CellTiter Glo (Table 9). The class given is cell-based.
Protocol: as §5
Assay [4] concerns MDA-MB-453 (human breast cancer cell). As to the kind of experiment: Cell proliferation assay, CellTiter Glo (Table 9). The class given is cell-based.
Protocol: as §5
The next assay concerns NCI-H1581 cells. As to the kind of experiment: Cell proliferation assay on NCI-H1581 (Table 7). The class given is cell-based, human. The text has this: (§1) Test method: adding the appropriate volume of whole medium and the cells was suspended.
Assay [5] relates to OPM-2 (human myeloma cell). As to the kind of experiment: Cell proliferation assay, CellTiter Glo (Table 9). The format is cell-based.
Protocol: as §5
The subject of assay [6] is SNU-16 (human gastric cancer cell). As to the kind of experiment: Cell proliferation assay, CellTiter Glo (Table 9). The format is cell-based.
Protocol: as §5
Assay [7] deals with NCI-H1581 (human non-small cell lung cancer cells). The assay is described as follows: Cell proliferation assay, CellTiter Glo (Table 9). The class given is cell-based.
Protocol: as §5
Assay [8] concerns JHH-7 (human hepatoma cell). As to the kind of experiment: Cell proliferation assay, CellTiter Glo (Table 9). The class given is cell-based.
Protocol: as §5
In assay [9] the test system is MFE-296 (human endometrial cancer cells). The assay is described as follows: Cell proliferation assay, CellTiter Glo (Table 9). The settings on record: WIFE-296 [sic]. The class given is cell-based.
Protocol: as §5
In assay [10] the test system is DMS 114 (human lung cancer cell). The assay is described as follows: Cell proliferation assay, CellTiter Glo (Table 9). The class given is cell-based.
Protocol: as §5
For assay [11], the target named is T1, FGFR4 (Homo sapiens (Human), UniProt P22455). As to the kind of experiment: Kinase assay Method 1, mobility shift assay. The class given is biochemical. The settings on record: ATP at Km, numeric values, read-out: IC50(nM) value of compounds FGFR4.
Assay [12] has as its system cell lines with abnormal changes in FGFR signaling pathway. As to the kind of experiment: cells. The settings on record: Homo sapiens, read-out: IC50 value. The procedure:
Test method: 100 μl of the cell suspension was added to a 96-well plate and placed in a CO2 incubator overnight. […] The test compound or DMSO was transferred to the corresponding cell wells respectively and was incubated for 96 hrs in 5% CO2 at 37° C. 100 μl of CellTiter-Glo reagent was added to the assay plate and incubated for 10 min at room temperature to stabilize the luminescence signal. The IC50 value was calculated by recording the RLU (relative luminescence unit) using Enspire.

Assay [13] has as its target T2, FGFR2 (Homo sapiens (Human), UniProt P21802). As to the kind of experiment: Kinase assay Method 2, isotope-labeled 33P-ATP method. The format is biochemical. The settings on record: ATP at Km, filter-binding, read-out: IC50(nM) value of compounds, FGFR2. The procedure: (§2) Reagent: basic kinase buffer: 20 mM Hepes (pH 7.5), 10 mM MgCl2, 1 mM EGTA, 0.02% Brij35, 0.02 mg/mL BSA, 0.1 mM Na3VO4, 2 mM DTT, 1% DMSO
(§3) Adding the corresponding coenzyme factor to each kinase reaction
(§4) Reaction process: 1) formulating the substrate in freshly configured reaction buffer • 2) adding the required coenzyme factor to the above substrate solution • 3) adding kinase to the substrate solution and mixing gently • 4) adding the compounds dissolved in 100% DMSO to the above kinase reaction mixture, mixed well and incubating for 20 min at room temperature • 5) adding ^33P-ATP (specific activity 10 μCi/μL) to the reaction mixture to initiate the reaction and incubating for 2 h at room temperature • 6) detection of kinase activity by filter-binding The experiment data is shown in table 6: […]

Assay [14] has as its target T3, FGFR3 (Homo sapiens (Human), UniProt P22607). The description is as above. The settings on record: ATP at Km, filter-binding, read-out: IC50(nM) value of compounds, FGFR3. The class given is biochemical. The procedure:
as §2, §3, §4

In assay [15] the target is T1, FGFR4. The assay is described as above. The class given is biochemical. The settings on record: ATP at Km, filter-binding, read-out: IC50(nM) value of compounds, FGFR4. The procedure:
as §2, §3, §4

For assay [16], the target named is T2, FGFR2. As to the kind of experiment: Kinase assay Method 1, mobility shift assay. The settings on record: ATP at Km, read-out: IC50(nM) value of compounds FGFR2. The class given is biochemical.
Assay [17] addresses T3, FGFR3. The assay is described as follows: Kinase assay Method 1, mobility shift assay. The settings on record: ATP at Km, read-out: IC50(nM) value of compounds FGFR3. The format is biochemical.
The test system of another assay is SNU-16 cells. The assay is described as follows: Cell proliferation assay on SNU-16, CellTiter Glo (Table 8). The format is cell-based, human. The settings on record: class symbols, read-out: IC50(nM) value of compounds on SNU-16 cells.
Text: as §1

[18] abbreviates: Homo sapiens, MDA-MB-453, 96 hrs.
The mark [19] stands for this setting: Homo sapiens, NCI-H1581, 96 hrs.
The mark [20] stands for this setting: Homo sapiens, NCI-H1581, read-out: IC50(nM) value of compounds on NCI-H1581 cells.

T1 sequence (P22455 22-802): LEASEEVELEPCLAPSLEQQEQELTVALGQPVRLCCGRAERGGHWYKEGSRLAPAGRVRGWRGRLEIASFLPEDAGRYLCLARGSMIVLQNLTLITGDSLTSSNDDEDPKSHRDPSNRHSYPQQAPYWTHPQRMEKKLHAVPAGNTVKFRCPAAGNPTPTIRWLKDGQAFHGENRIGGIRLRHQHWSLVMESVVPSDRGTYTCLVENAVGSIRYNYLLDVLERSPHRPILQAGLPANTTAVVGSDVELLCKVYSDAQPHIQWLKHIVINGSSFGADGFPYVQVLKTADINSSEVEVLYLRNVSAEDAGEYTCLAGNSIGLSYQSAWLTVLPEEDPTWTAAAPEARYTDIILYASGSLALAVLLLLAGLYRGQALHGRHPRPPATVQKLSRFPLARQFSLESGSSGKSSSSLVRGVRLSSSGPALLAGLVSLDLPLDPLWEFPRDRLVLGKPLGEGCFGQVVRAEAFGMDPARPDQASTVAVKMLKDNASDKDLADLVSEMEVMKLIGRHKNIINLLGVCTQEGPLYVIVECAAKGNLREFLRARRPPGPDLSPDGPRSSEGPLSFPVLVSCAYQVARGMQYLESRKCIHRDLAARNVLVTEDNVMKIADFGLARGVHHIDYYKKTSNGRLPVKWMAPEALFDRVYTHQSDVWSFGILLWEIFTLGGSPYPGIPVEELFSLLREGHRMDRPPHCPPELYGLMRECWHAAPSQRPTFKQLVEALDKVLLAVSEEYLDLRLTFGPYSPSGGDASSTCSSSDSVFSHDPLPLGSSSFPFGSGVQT
T2 sequence (P21802 22-821): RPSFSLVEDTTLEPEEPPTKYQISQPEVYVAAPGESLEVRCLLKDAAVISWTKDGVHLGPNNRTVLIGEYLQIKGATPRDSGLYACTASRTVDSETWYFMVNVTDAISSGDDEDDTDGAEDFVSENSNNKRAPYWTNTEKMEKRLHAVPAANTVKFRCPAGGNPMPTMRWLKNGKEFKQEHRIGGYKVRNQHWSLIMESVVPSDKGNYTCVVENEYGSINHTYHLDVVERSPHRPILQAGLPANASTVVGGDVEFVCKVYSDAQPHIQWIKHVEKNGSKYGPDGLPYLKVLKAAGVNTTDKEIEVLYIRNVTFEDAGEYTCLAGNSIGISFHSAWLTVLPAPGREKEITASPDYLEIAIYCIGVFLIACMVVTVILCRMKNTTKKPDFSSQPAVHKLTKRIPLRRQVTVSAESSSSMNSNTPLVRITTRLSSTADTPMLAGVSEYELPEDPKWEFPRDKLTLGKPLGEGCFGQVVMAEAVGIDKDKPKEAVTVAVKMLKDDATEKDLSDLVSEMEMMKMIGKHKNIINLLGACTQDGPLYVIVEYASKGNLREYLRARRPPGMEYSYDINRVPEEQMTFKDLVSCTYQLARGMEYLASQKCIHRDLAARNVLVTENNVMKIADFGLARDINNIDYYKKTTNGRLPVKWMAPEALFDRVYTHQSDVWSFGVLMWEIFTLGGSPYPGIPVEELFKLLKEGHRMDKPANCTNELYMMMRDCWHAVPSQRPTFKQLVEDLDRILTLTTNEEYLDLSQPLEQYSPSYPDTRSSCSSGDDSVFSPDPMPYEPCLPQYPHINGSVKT
T3 sequence (P22607 23-806): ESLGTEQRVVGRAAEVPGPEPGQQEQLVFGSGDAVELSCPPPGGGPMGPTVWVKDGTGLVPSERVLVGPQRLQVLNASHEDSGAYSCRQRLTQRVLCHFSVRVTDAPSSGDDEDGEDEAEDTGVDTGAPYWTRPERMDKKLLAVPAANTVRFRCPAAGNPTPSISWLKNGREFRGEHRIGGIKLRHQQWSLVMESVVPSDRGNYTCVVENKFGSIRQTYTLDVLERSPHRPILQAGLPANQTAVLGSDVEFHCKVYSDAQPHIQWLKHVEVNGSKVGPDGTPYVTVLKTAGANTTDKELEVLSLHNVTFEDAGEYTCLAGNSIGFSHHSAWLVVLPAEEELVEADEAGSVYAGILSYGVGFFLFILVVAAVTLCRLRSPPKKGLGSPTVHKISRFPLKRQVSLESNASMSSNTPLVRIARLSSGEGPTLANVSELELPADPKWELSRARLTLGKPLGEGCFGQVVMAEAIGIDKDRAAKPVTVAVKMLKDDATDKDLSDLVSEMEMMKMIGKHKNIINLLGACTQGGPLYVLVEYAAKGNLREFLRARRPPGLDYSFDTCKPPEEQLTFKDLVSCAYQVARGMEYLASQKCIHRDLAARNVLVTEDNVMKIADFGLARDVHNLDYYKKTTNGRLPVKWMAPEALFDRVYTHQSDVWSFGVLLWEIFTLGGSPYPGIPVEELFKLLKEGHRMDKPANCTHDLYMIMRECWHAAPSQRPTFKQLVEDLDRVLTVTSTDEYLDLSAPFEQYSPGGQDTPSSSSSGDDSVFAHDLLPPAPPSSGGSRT

Consider `CCN1CCN(c2ccc(Nc3cc(N(C)C(=O)Nc4c(Cl)c(OC)cc(OC)c4Cl)ncn3)cc2)CC1` [BGJ398, Infigratinib], for which the IC50 (usually the concentration that inhibits the measured activity by half) in assay [1] (Homo sapiens, NCI-H716, 96 hrs) stood at 4.6 nM; in [2] (Homo sapiens) it was 16.9 nM; in assay [3] (Homo sapiens, RT-112, 96 hrs), 4.4 nM; in [4] (setting [18]), 544 nM; in the assay on NCI-H1581 cells (Homo sapiens, NCI-H1581, CellTiter 96 AQueous (144 hrs) or CellTiter Glo (96 hrs), numeric values, read-out: IC50(nM) value of compounds on NCI-H1581 cells), 3.4 nM; in assay [5] (Homo sapiens, OPM-2, 96 hrs) it was 18 nM. The IC50 in assay [6] (Homo sapiens, SNU-16, 96 hrs) is 9.5 nM; in assay [7] (setting [19]), 18.2 nM; in assay [8] (Homo sapiens, JHH7, 96 hrs), 54.1 nM; in assay [9] (Homo sapiens, MFE-296, 96 hrs) it was 51.4 nM; in assay [10] (Homo sapiens, DMS-114, 96 hrs), 33.6 nM.

`CCN1CCN(c2ccc(Nc3ncc4cc(-c5cc(OC)cc(OC)c5Cl)c5nncn5c4n3)cc2)CC1` [Compound 4, 6-(2-chloro-3,5-dimethoxyphenyl)-N-(4-(4-ethylpiperazin-1-yl)phenyl)-[1,2,4]triazolo[4′,3′:1,6]pyrido[2,3-d]pyrimidin-2-amine]: the IC50 in assay [1] (Homo sapiens, NCI-H716, 96 hrs) is 0.5 nM; at FGFR4 [11], 27 nM; in assay [2] (Homo sapiens), 1.9 nM; in [3] (Homo sapiens, RT-112, 96 hrs) it was 1 nM; in assay [12], 0.5 to 2.7 nM; in assay [4] (setting [18]), 61.3 nM. Moreover, the IC50 was 0.16 nM at FGFR2 [13]; 1.34 nM at FGFR3 [14]; 5.06 nM on FGFR4 [15]; 0.4 nM in the assay with NCI-H1581 cells (setting [20]); 4 nM in assay [5] (Homo sapiens, OPM-2, 96 hrs); 1.1 nM in assay [6] (Homo sapiens, SNU-16, 96 hrs). Also, the IC50 stood at 1.2 nM in assay [7] (setting [19]); 6.6 nM in [8] (Homo sapiens, JHH7, 96 hrs); 2.7 nM in assay [9] (Homo sapiens, MFE-296, 96 hrs); 7.4 nM in assay [10] (Homo sapiens, DMS-114, 96 hrs).

Regarding `COc1cc(OC)c(Cl)c(-c2cc3cnc(Nc4ccc(N5CCN6CCC[C@@H]6C5)cc4)nc3n3cnnc23)c1` [Compound 24, (R)-6-(2-chloro-3,5-dimethoxyphenyl)-N-(4-(hexahydropyrrolo[1,2-a]pyrazin-2(1H)-yl)phenyl)-[1,2,4]triazolo[4′,3′:1,6]pyrido[2,3-d]pyrimidin-2-amine], the IC50 is 26 nM at FGFR4 [11]; 1.8 nM at FGFR2 [16]; 0.8 nM at FGFR3 [17]; 1.2 nM in the assay with NCI-H1581 cells (setting [20]); less than 1 nM in the assay on SNU-16 cells (Homo sapiens, SNU-16, 96 hrs).

As for `COc1cc(OC)c(Cl)c(-c2cc3cnc(Nc4ccc(N5CCN6CCOC[C@@H]6C5)cc4)nc3n3cnnc23)c1` [Compound 42, (S)-6-(2-chloro-3,5-dimethoxyphenyl)-N-(4-(hexahydropyrazino[2,1-c][1,4]oxazin-8(1H)-yl)phenyl)-[1,2,4]triazolo[4′,3′:1,6]pyrido[2,3-d]pyrimidin-2-amine], the IC50 at FGFR2 [16] was 1.3 nM; on FGFR3 [17], 1.6 nM; in the assay on NCI-H1581 cells (setting [20]) it was 3.2 nM; in the assay on SNU-16 cells (Homo sapiens, SNU-16, 96 hrs), less than 1 nM.

On to `COc1cc(OC)c(Cl)c(-c2cc3cnc(Nc4ccc(N5CCN6CCC[C@@H]6C5)cc4)nc3n3cnnc23)c1Cl` [Compound 64, (R)-6-(2,6-dichloro-3,5-dimethoxyphenyl)-N-(4-(hexahydropyrrolo[1,2-a]pyrazin-2(1H)-yl)phenyl)-[1,2,4]triazolo[4′,3′:1,6]pyrido[2,3-d]pyrimidin-2-amine], for which the IC50 on FGFR4 [11] was 14 nM; at FGFR2 [16] it was 2.7 nM; on FGFR3 [17] it was 0.6 nM; in the assay on NCI-H1581 cells (setting [20]) it was 0.5 nM; in the assay on SNU-16 cells (Homo sapiens, SNU-16, 96 hrs), less than 1 nM.

Take `COc1cc(OC)cc(N(CCNC(C)C)c2ccc3ncc(-c4cnn(C)c4)nc3c2)c1` [JNJ42756493]: the IC50 stood at 0.6 nM in assay [1] (96 hrs); 2.4 nM in [2]; 0.8 nM in assay [3] (96 hrs); 11 nM in [4] (96 hrs); 0.5 nM with NCI-H1581 cells (CellTiter 96 AQueous (144 hrs) or CellTiter Glo (96 hrs), numeric values, read-out: IC50(nM) value of compounds on NCI-H1581 cells); 2.5 nM in assay [5] (96 hrs). Also, the IC50 in [6] (96 hrs) was 1.2 nM; in the assay with SNU-16 cells (96 hrs), less than 1 nM; in [7] (96 hrs), 1.5 nM; in assay [8] (96 hrs), 3.8 nM; in assay [9] (96 hrs) it was 16.7 nM; in assay [10] (96 hrs) it was 14.8 nM.
